Reference: paper PMC7671950 (Cellular and molecular neurobiology, 2020)
Read-outs that look alike come from different tables or passages of the source.

Columns and labels:
mDOR-1 = mDOR-1 (Mus musculus, UniProt P32300); conditions: read-out: Ki mDOR-1; values from literature; ref Majumdar et al. 2012; cited from earlier work
[1] = biological target: triple knockout mouse brain (Mus musculus, UniProt P42866); conditions: read-out: Ki Triple KO; values from literature; ref Majumdar et al. 2012; cited from earlier work
triple knockout mouse brain, sequence (P42866 96-398): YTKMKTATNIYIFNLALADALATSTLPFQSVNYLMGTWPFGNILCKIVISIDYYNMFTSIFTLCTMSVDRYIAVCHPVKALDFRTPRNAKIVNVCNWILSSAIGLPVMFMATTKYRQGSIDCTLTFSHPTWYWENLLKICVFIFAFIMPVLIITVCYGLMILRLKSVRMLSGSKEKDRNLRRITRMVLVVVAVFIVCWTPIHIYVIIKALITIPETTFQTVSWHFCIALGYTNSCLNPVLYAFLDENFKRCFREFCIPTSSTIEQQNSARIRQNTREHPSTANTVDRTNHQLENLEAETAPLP

mMOR-1 [2] = biological target: T1, mMOR-1 (Mus musculus, UniProt P42866); conditions: read-out: Ki mMOR-1; values from literature; ref Majumdar et al. 2012; cited from earlier work
T1 sequence (P42866 whole entry): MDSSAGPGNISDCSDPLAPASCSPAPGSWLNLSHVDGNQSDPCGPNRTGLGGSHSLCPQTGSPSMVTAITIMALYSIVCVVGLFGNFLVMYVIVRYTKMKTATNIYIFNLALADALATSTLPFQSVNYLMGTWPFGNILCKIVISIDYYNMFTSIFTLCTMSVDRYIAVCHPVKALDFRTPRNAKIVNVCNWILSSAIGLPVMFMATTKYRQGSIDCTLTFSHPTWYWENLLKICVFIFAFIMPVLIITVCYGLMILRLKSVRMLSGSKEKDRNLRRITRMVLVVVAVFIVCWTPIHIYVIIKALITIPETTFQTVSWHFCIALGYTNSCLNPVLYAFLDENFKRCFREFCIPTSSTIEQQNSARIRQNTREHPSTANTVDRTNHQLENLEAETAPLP

mMOR-1 [3] = biological target: T1, mMOR-1; assay: [35S]GTPγS functional assay; format: biochemical; conditions: for mMOR-1 Emax: percent maximal stimulation relative to DAMGO at 1000 nM; for functional character at MOR-1: [35S]GTPγS functional assays; for Emax: read-out: mMOR-1 Emax
6TM/E11 [4] = biological target: T2, 6TM/E11 (Mus musculus, UniProt P42866); conditions: read-out: Ki 6TM/E11; values from literature; ref Majumdar et al. 2012; cited from earlier work
T2 sequence (P42866 95-386 limits assumed): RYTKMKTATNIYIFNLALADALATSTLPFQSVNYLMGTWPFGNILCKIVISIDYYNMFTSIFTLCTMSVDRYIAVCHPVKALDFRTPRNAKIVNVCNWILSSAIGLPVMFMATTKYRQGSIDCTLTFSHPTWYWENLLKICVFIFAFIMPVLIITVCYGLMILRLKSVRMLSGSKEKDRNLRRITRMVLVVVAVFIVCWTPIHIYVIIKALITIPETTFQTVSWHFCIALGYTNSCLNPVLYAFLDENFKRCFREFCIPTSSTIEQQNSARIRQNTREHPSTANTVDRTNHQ

mKOR-1 = mKOR-1 (Mus musculus, UniProt P33534); conditions: read-out: Ki mKOR-1; values from literature; ref Majumdar et al. 2012; cited from earlier work
mKOR-1, sequence (P33534 whole entry): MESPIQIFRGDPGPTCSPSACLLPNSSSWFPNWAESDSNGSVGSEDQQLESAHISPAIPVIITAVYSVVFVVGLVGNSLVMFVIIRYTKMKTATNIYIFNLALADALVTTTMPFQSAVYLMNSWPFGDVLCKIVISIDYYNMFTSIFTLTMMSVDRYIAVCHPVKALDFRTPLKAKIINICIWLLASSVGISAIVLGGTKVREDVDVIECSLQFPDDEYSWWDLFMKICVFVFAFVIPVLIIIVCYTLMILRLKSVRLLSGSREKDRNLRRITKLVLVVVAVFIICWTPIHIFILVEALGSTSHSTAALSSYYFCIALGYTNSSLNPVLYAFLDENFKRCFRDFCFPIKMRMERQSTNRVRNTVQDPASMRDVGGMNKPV

6TM/E11 [5] = biological target: T2, 6TM/E11
[6] = read-out: mMOR-1 EC50, [35S]GTPγS binding, mean ± SEM, 3 replications

mDOR-1, sequence (P32300 whole entry): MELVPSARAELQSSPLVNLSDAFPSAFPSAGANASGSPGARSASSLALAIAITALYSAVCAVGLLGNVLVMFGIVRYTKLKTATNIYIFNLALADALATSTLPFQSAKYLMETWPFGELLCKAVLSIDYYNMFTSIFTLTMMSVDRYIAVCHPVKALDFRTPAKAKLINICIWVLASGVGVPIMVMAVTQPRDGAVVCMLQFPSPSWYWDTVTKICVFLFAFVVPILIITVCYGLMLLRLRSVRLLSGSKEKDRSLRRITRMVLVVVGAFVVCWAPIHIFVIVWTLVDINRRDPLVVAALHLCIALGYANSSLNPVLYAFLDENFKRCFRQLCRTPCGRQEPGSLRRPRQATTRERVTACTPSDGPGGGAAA

Row | Structure (SMILES) | Ki (mDOR-1) [nM] | Ki [1] [nM] | Ki (mMOR-1 [2]) [nM] | mMOR-1 Emax (mMOR-1 [3]; mean ± SEM) [%] | EC50 (mMOR-1 [3]; [6]) [nM] | Ki (6TM/E11 [4]) [nM] | Ki (mKOR-1) [nM] | EC50 (mMOR-1 [3]) [nM] | functional character at MOR-1 (mMOR-1 [3]) | Emax (mMOR-1 [3]) [%] | Ki (6TM/E11 [5]) [nM]
1 | O=C(N[C@@H]1CC[C@@]2(O)[C@H]3Cc4ccc(O)c5c4[C@@]2(CCN3CC2CC2)[C@H]1O5)c1cccc(I)c1 [IBNtxA, 3’-iodobenzoylnaltrexamide] | 0.24 ± 0.1 | 0.12 ± 0.04 | 0.11 ± 0.02 | 101 ± 3 | 0.49 ± 0.12 | 0.16 ± 0.04 | 0.03 ± 0.001 |  |  |  | 
2 | C=CCN1CC[C@]23c4c5ccc(O)c4O[C@H]2[C@H](NC(=O)c2cccc(I)c2)CC[C@@]3(O)[C@H]1C5 [IBNalA] | 2.55 ± 0.18 |  | 0.22 ± 0.12 | 75 ± 3.5 | 1.4 ± 0.3 | 0.25 ± 0.12 | 0.08 ± 0.06 |  |  |  | 
3 | C=CCN1CC[C@]23c4c5ccc(O)c4O[C@H]2[C@H](NC(=O)c2ccc(N=[N+]=[N-])c(I)c2)CC[C@@]3(O)[C@H]1C5 [IBzA 10, N-((4R,4aS,7R,7aR,12bS)-3-Allyl-4a,9-dihydroxy-2,3,4,4a,5,6,7,7a-octahydro-1H-4,12-methanobenzofuro[3,2-e]isoquinolin-7-yl)-4-azido-3-iodobenzamide] |  |  |  |  |  |  |  | 0.86 ± 0.24 | full agonists | 122 ± 3 | 4.64 ± 0.2
4 | C#CCN1CC[C@]23c4c5ccc(O)c4O[C@H]2[C@H](NC(=O)c2ccc(N=[N+]=[N-])c(I)c2)CC[C@@]3(O)[C@H]1C5 [Alkynyl-IBzA 17, 4-Azido-N-((4R,4aS,7R,7aR,12bS)-4a,9-dihydroxy-3-(prop-2-yn-1-yl)-2,3,4,4a,5,6,7,7a-octahydro-1H-4,12-methanobenzofuro[3,2-e]isoquinolin-7-yl)-3-iodobenzamide] |  |  |  |  |  |  |  | 1.1 ± 0.1 | full agonists | 103 ± 3 | 12 ± 1.63
